Structures can show the parent of a compound that is named as a salt. Activity calls are given as the source filed them.
Columns and labels:
[1] = target: Voltage-dependent T-type calcium channel subunit alpha-1H (Homo sapiens, UniProt O95180); assay type: functional;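 also: channel activity triggered by adding a high calcium stimulation buffer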
[2] = viability of uninfected HEp-2 cells – cell-based, HTS, cytotoxicity control for RSV inhibitor project, dose response (AID 2410); assay type: functional; details: human respiratory syncytial virus
Vero [3] = assay: cells; assay type: functional, cell-based; details: Chlorocebus sabaeus
cells [4] = assay: cells
[5] = THP-1 cell cytotoxicity, dose response, cytotoxicity control for non-replicating M. tuberculosis project (AID 489025); assay type: functional
cells [6] = assay type: functional
[7] = target: T1, Heat shock factor protein 1 (Mus musculus, UniProt P38532); assay: decrease of HSF1-responsive luciferase luminescence – cell-based, NIH3T3, dose retest, confirmation (AID 2382); assay type: functional;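 also: NIH3T3 fibroblasts with HSF1-driven luciferase reporter stressed by proteasome inhibitor MG132; luminescence from HSF1-driven luciferase expression after 8 hours of MG132 stress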
T1 sequence (P38532 whole entry): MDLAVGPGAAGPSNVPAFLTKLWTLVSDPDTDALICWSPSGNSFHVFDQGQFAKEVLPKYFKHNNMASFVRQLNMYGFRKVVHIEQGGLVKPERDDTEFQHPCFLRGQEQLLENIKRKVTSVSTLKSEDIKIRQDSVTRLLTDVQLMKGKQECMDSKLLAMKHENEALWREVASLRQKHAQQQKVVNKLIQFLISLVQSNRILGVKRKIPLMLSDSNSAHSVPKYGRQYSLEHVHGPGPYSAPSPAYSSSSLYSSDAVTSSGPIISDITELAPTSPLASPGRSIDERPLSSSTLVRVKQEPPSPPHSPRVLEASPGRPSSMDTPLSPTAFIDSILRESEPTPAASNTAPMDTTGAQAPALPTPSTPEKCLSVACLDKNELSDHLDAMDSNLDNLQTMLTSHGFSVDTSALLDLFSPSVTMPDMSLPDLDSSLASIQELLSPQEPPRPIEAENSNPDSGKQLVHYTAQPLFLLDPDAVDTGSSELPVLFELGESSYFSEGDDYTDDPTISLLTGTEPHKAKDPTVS

[8] = target: Eukaryotic translation initiation factor 4E (Mus musculus, UniProt P63073); assay: blockers of eIF4G binding by eIF4E – biochemical, TR-FRET, dose response (AID 855); assay type: functional;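 also: potency for disrupting eIF4E binding to eIF4GI seen as loss of FRET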
[9] = target: T2, Short transient receptor potential channel 4 (Mus musculus, UniProt Q9QUQ5); assay: block of DAMGO-driven TRPC4 calcium entry – cell-based, HEK293 TRPC4/mu-opioid, Fluo-4 calcium, dose response (AID 434942); assay type: functional;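 also: potency of inhibitors blocking the TRPC4 calcium response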
T2 sequence (Q9QUQ5 whole entry): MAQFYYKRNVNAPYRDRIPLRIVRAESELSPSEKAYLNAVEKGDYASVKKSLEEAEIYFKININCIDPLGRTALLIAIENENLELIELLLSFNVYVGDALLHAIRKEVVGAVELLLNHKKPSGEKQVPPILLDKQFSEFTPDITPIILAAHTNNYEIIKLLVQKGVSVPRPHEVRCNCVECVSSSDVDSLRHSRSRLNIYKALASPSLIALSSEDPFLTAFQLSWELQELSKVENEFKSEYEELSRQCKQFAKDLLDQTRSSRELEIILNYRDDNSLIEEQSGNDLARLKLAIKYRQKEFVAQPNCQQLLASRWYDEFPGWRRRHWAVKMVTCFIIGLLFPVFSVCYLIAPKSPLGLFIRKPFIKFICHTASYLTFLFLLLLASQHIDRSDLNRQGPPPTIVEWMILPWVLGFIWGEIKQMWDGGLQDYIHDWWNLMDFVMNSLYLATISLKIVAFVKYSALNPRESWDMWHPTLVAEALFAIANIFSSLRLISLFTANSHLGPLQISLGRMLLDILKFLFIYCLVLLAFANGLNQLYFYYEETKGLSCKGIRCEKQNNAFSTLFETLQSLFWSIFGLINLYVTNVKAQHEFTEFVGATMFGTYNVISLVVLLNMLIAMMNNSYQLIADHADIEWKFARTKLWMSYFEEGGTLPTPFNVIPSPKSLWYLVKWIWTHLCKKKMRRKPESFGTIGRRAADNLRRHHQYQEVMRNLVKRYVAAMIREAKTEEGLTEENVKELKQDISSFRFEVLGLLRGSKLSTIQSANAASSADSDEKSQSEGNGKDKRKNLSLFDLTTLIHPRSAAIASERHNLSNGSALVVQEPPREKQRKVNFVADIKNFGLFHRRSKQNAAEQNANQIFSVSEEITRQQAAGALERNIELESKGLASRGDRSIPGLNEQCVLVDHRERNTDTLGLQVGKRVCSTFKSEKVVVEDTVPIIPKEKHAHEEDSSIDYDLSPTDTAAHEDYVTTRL

[10] = HEK-293T cell viability reduction – luminescence, B-cell screen hits, cytotoxicity control for BCR NF-kB inhibitor project, dose response (AID 489021); assay type: functional, cell-based;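 also: HEK-293T cells carrying an NF-kB luciferase reporter; cells exposed to compound for about 14 hours before viability readout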
[11] = target: T3, Replicative DNA helicase DnaB (Mycobacterium tuberculosis, UniProt P9WMR3); assay: DnaB intein splicing inhibitors, dose response, biochemical, cell-free fluorescence (AID 449749); assay type: functional
T3 sequence (P9WMR3 whole entry): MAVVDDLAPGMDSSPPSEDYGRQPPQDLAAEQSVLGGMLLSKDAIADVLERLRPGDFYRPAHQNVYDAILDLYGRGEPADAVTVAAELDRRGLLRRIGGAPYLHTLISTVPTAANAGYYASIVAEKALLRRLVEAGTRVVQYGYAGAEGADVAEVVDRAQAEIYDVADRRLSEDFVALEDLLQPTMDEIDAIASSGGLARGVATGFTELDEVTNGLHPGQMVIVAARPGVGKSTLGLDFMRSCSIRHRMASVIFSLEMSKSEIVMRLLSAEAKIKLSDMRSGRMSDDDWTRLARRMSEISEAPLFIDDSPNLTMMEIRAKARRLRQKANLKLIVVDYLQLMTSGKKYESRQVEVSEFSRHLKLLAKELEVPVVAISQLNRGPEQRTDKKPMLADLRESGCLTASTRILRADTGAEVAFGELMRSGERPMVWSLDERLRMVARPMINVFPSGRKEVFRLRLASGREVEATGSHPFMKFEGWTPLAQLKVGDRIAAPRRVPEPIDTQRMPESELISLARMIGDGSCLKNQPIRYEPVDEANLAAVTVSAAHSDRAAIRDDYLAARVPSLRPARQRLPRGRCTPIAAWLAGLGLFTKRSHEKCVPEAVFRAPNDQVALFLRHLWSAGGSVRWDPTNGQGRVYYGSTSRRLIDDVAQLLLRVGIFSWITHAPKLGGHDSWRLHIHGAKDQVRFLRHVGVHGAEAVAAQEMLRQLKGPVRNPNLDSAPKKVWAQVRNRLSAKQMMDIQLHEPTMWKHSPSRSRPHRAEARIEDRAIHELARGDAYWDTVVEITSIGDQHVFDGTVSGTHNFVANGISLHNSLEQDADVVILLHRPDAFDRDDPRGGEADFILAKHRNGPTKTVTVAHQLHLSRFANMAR

Protein RecA = target: T4, Protein RecA (Mycobacterium tuberculosis, UniProt P9WHJ3); assay: Fluorescence Cell-Free Homogeneous Dose Retest to Identify Inhibitors of RecA-Intein Splicing Activity. [Related pubchem assays (depositor defined):AID2097, AID2223, AID489010, AID492950]; assay type: functional
T4 sequence (P9WHJ3 whole entry): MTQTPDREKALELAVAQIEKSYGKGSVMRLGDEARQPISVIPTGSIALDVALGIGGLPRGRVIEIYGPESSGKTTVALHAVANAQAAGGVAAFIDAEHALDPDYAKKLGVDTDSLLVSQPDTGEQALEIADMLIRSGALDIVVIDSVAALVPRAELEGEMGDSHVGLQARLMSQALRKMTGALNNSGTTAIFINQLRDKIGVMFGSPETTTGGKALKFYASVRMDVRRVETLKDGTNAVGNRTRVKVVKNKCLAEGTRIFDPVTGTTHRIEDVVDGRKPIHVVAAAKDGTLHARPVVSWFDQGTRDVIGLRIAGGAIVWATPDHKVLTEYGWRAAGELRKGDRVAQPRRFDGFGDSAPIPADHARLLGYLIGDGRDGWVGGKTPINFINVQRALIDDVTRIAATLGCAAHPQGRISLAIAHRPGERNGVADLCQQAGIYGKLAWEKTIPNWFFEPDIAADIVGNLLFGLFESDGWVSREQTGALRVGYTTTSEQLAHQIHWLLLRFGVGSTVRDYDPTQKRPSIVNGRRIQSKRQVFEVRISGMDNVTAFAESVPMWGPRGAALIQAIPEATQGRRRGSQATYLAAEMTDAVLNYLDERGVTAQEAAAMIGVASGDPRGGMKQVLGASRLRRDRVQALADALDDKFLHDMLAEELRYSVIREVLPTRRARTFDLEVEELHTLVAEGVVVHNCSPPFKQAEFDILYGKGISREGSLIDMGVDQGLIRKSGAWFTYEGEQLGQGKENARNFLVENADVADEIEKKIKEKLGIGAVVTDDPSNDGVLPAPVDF

Vero [12] = assay: cells; assay type: functional; details: Chlorocebus sabaeus
[13] = target: T5, Microphthalmia-associated transcription factor (Homo sapiens, UniProt O75030); assay: reducers of TRPM1 reporter luminescence, concentration series – cell-based, SK-MEL-5, cherry-picked, set 3, MITF inhibitor project, dose response (AID 493073); assay type: functional;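 also: SK-MEL-5 melanoma cells with luciferase driven by the MITF target TRPM1 promoter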
T5 sequence (O75030 whole entry): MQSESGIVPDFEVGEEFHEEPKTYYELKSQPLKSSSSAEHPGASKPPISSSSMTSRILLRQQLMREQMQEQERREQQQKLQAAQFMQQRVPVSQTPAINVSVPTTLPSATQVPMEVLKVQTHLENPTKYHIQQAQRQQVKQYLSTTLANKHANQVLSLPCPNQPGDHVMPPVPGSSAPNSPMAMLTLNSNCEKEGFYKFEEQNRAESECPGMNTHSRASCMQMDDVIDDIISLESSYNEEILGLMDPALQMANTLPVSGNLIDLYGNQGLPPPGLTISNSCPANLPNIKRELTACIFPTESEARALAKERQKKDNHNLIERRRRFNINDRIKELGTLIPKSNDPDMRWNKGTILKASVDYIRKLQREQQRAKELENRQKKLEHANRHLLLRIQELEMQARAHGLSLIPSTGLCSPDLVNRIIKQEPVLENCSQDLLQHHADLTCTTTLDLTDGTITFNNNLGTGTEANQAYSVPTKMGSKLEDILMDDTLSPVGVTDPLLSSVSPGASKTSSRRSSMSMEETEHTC

Voltage-dependent T-type calcium channel subunit alpha-1H, sequence (O95180 whole entry): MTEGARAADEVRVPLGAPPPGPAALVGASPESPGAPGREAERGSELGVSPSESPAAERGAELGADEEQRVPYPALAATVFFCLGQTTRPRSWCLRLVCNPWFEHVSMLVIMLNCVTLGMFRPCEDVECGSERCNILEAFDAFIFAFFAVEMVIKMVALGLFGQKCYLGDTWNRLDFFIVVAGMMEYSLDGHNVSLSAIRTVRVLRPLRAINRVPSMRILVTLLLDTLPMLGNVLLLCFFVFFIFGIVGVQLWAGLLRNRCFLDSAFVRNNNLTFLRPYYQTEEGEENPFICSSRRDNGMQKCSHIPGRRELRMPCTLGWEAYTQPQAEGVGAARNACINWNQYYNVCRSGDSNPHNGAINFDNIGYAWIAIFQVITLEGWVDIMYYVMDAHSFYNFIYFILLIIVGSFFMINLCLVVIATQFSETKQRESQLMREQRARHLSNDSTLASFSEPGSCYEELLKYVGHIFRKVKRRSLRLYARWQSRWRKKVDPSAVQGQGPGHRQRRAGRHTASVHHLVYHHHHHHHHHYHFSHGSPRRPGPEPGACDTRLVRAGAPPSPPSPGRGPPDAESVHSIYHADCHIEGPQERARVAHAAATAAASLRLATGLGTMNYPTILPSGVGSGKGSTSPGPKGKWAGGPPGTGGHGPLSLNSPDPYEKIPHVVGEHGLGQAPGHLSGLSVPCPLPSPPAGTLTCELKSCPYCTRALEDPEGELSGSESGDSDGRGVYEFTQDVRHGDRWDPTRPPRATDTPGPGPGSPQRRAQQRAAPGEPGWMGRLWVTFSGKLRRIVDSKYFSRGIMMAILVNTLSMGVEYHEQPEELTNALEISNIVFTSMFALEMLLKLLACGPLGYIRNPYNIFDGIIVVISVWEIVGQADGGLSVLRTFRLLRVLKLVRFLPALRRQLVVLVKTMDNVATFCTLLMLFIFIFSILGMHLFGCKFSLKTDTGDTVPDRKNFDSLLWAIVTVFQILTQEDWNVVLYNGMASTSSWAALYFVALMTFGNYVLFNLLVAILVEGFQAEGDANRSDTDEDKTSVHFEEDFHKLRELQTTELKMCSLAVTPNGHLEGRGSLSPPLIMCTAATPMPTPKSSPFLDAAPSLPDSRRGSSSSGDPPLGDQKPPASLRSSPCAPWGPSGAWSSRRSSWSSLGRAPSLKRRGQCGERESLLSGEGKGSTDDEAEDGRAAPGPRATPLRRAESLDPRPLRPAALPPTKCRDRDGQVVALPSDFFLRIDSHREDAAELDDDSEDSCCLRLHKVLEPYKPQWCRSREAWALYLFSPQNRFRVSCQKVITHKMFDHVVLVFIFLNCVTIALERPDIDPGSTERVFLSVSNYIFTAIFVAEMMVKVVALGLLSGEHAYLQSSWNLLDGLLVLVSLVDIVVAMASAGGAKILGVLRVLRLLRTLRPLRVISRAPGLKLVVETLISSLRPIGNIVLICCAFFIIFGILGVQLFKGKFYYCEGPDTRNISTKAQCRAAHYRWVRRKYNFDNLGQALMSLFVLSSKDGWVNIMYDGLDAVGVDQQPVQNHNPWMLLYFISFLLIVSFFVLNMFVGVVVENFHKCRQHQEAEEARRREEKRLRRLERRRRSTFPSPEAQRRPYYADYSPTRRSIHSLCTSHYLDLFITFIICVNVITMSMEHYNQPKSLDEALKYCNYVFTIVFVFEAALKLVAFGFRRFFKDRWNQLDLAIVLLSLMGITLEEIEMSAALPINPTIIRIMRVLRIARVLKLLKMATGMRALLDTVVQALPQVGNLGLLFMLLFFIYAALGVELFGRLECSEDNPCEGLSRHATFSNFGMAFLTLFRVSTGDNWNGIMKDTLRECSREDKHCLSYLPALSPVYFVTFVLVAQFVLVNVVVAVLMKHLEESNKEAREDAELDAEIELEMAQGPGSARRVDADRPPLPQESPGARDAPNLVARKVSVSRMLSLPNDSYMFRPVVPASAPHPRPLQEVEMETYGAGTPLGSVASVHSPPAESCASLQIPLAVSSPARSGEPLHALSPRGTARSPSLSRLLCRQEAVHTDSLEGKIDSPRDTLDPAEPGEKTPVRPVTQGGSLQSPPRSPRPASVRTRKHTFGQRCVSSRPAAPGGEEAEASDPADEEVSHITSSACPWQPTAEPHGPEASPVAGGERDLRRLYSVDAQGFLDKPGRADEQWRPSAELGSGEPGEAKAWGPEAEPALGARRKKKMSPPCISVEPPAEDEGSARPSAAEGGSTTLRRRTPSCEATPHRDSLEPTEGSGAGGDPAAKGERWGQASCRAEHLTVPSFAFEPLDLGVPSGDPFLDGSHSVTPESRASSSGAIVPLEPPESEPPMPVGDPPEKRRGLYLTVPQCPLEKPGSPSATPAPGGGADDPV
Eukaryotic translation initiation factor 4E, sequence (P63073 whole entry): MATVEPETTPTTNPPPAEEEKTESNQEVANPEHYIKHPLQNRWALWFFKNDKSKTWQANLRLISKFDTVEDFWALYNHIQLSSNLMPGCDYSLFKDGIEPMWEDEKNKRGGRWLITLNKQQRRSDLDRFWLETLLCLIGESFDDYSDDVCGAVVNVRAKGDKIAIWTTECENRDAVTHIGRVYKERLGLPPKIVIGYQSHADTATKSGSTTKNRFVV

O=C(Nc1ccc(F)cc1)c1cc(S(=O)(=O)Nc2ccc(F)cc2)cs1
EC50 [1]: 2.88 µM (active)

CCOc1ccccc1CNC(=O)c1cc2oc3ccccc3c2n1C
CC50 [2]: 18.7 µM (active)
IC50 (Vero [3]): 4.91 µM (active)
IC50 (cells [4]): 9.25 µM (active)

C#CCSc1nnc(-c2ccc(C)cc2)o1
CC50 [5]: > 40 µM (active)
IC50 (cells [6]): 26.4 µM (active)

O=C1NC(=O)C(CCc2ccncc2)(CCc2ccncc2)C(=O)N1Cc1ccccc1
EC50 [7]: > 195 µM (not active)
IC50 [8]: 50 µM (inactive)

O=C(CSc1nnc(Cc2cccs2)n1-c1ccccc1)NCc1ccc2c(c1)OCO2
EC50 [1]: 8.23 µM (active)

COc1cc(CNC2CCCC2)c(Br)cc1OCc1ccccc1
EC50 [9]: 0.237 µM (active)

COc1ccccc1N1CCN(CC(C)N(C(=O)C2CCCCC2)c2ccccn2)CC1 (stereo not given)
EC50 [9]: 0.335 µM (active)

CCN1C(=O)c2cccc3c(S(=O)(=O)Nc4ccccn4)ccc1c23
IC50 [10]: > 80 µM (inactive)

Cc1cc(-c2csc3ncnc(N4CCN(C)CC4)c23)cc(C)c1C
EC50 [9]: 1.19 µM (active)

CC(=O)NC1=C(Nc2ccc(N(C)C)cc2)C(=O)c2ccccc2C1=O
CC50 [2]: 15.3 µM (active)
AC50 [11]: 34.5 µM (active)
IC50 (Vero [3]): 24.7 µM (active)
EC50 (Protein RecA): 46.6 µM (active)
CC50 (Vero [12]): > 25 µM (active)
IC50 (cells [4]): 17.5 µM (active)

CSc1cccc(NC(=O)CSc2ccccc2)c1
EC50 [1]: 9.9 µM (active)

COc1ccc(-c2nnc(OCc3nc4ccccc4n3C)c3ccccc23)cc1
CC50 [2]: 38.6 µM (active)
IC50 (cells [4]): 14.7 µM (active)

C=CCOc1ccc(/C=C2\SC(=S)N(CCC(=O)O)C2=O)cc1
EC50 [7]: 5.69 µM (active)
AC50 [13]: 0.337 µM (active)
IC50 [10]: > 80 µM (inactive)

COc1ccc(/C=C2\SC(=O)N(CCCC(=O)Nc3ccc(C(=O)O)cc3)C2=O)cc1OC
IC50 [10]: > 80 µM (inactive)

CN(C)CC/C=C1\c2cc(Cl)ccc2Sc2cc(F)c(F)cc21
CC50 [5]: 38.8 µM (active)
IC50 (cells [6]): 18.2 µM (active)
CC50 (Vero [12]): > 25 µM (active)

CCCCOc1cc(C(=O)NCCN(CC)CC)c2ccccc2n1 [DIBUCAINE HYDROCHLORIDE]
IC50 [8]: 50 µM (inactive)

From ChEMBL document CHEMBL1201862, “PubChem BioAssay data set” (2004)
